According to US10842794B2, “Use of Sigma-1 receptor agonist compounds” (MTA TÁMOGATOTT KUTATÓCSOPORTOK IRODÁJA, priority 2014, dated 2020):

Experiments:
[1] = tested on: rat model of bleomycin-induced lung fibrosis; experiment: Rat model of bleomycin induced pulmonary fibrosis: αSMA protein in lung, western blot; format: in vivo; conditions: fluvoxamine 20 mg/bwkg/day, three weeks after bleomycin
Procedure: (Bars represent Mean±SEM, n=6/group).
For the induction of pulmonary fibrosis male Wistar rats were anesthetized. Bleomycin (5 mg/bwkg in a 300 μl solution of isotonic saline) or 300 μl isotonic saline was administered into the trachea using a 30G needle.
Animals were randomly divided into 4 groups of 6 rats each as follows (i)—control group was sham operated, received isotonic saline per os daily for 3 weeks, (ii) vehicle treated group: received isotonic saline per os daily for 3 weeks after the induction of lung fibrosis, (iii) fluvoxamine treated group: received fluvoxamine (20 mg/bwkg/day per os for 3 weeks after the induction of lung fibrosis), (iv) fluvoxamine+NE100 treated group: received fluvoxamine (20 mg/bwkg/day; per os) and 1 mg/bwkg/day NE100 (i.p. for 3 weeks after the induction of lung fibrosis. […]
Tissue samples were lysed in buffer containing leupeptin, aprotinin, Triton X-100, Tris-HCl, Ethylene glycol-bis (2-aminoethylether),N,N,N′,N′-tetraacetic-acid, NaF, Phenylmethylsulphonylfluoride and Na-orthovanadate (each substance were purchased from Sigma-Aldrich Co., St. Louis, Mo., USA) and centrifuged to pellet nuclei and large cellular fragments. Protein concentration of the supernatants was determined by Bradford assay (Bio-Rad Laboratories, Hercules, Calif., USA). […] Bands were analyzed with Quantity One software version 4.6.9. […]

[2] = tested on: Streptozotocin induced type 1 diabetic rats; experiment: Diabetic rat kidney: Masson's trichrome staining, tubulointerstitial fibrosis; format: in vivo

In the case of `COCCCC/C(=N\OCCN)c1ccc(C(F)(F)F)cc1` [fluvoxamine, 2-{[(E)-{5-Methoxy-1-[4-(trifluoromethyl)phenyl]pentylidene}amino]oxy}ethanamine], the “bleomycin-induced αSMA production in the lung” value [1] is reported as “successfully reduced bleomycin-induced αSMA production nearly to the level of controls”, the “diabetes induced tubulointerstitial fibrosis (Masson's trichrome)” value ([2]; fluvoxamine 20 mg 7 weeks, 20 mg 2 weeks, 2 mg 2 weeks per os) is reported as “ameliorated the diabetes induced tubulointerstitial fibrosis” and the “renal structure (Masson's trichrome)” value ([2]; long-term (7-weeks) fluvoxamine 20 mg/bwkg/day) is reported as “restored almost the normal renal structure”.
